Like-named read-outs stand apart in the source and are kept apart here. Where a SMILES comes first, the peptide text is derived from it. [ ]: non-standard residue; d: D form. Aib = CC(C)(N)C(=O)O
Tests used:
[1] = target: human GLP-1 receptor (Homo sapiens, UniProt P43220); assay: Functional GLP-1 receptor assay, in vitro potency (CRE luciferase; whole cells); type: cell-based; conditions: BHK cells expressing human GLP-1 receptor
[2] = tested on: Mouse monocyte/macrophage cell line, RAW 264.7; assay: Cholesterol efflux assay (3H-cholesterol, macrophage cell line); type: cell-based; conditions: RAW 264.7, 4 hrs incubation, 0.1% human serum albumin, ABCA1-mediated efflux
[3] = GLP1R CRE luc 1% HSA EC50 Mean Value, 1% HSA

Chain of human GLP-1 receptor (P43220 24-463): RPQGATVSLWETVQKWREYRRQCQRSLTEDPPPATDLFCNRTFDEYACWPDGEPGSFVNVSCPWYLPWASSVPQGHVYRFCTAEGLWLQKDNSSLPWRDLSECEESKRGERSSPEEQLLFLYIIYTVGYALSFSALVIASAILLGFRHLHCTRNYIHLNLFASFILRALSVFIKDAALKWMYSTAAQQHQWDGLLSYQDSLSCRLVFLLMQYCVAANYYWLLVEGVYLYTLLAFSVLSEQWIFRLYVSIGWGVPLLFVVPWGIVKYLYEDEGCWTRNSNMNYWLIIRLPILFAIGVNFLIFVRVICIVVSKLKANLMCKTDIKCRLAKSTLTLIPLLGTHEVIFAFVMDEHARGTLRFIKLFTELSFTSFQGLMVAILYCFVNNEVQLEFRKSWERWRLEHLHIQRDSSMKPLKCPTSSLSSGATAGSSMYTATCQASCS

CC[C@H](C)[C@H](NC(=O)[C@H](Cc1ccccc1)NC(=O)[C@H](CCC(=O)O)NC(=O)[C@H](CCCCN)NC(=O)[C@@H](NC(=O)[C@H](C)NC(=O)[C@H](CCC(=O)O)NC(=O)CNC(=O)[C@H](CCC(=O)O)NC(=O)[C@H](CC(C)C)NC(=O)[C@H](Cc1ccc(O)cc1)NC(=O)[C@H](CO)NC(=O)[C@H](CO)NC(=O)[C@@H](NC(=O)[C@H](CC(=O)O)NC(=O)[C@H](CO)NC(=O)[C@@H](NC(=O)[C@H](Cc1ccccc1)NC(=O)[C@@H](NC(=O)CNC(=O)[C@H](CCC(=O)O)NC(=O)C(C)(C)NC(=O)[C@@H](N)Cc1c[nH]cn1)[C@@H](C)O)[C@@H](C)O)C(C)C)C(C)C)C(=O)N[C@@H](C)C(=O)N[C@@H](Cc1c[nH]c2ccccc12)C(=O)N[C@@H](CC(C)C)C(=O)N[C@H](C(=O)N[C@@H](CCC(=O)O)C(=O)N[C@@H](CCCCN)C(=O)N[C@H](C(=O)N[C@@H](CCCCN)C(=O)N[C@@H](CCC(=O)O)C(=O)N[C@@H](Cc1ccccc1)C(=O)N[C@@H](Cc1ccccc1)C(N)=O)C(C)C)C(C)C [Compound 121, [Aib8,Glu23,Val25,Glu34,Lys35,Val36,Lys37]-GLP-1-(7-37)-peptidyl-Glu-Phe-Phe amide] (H-H[Aib]EGTFTSDVSSYLEGEAVKEFIAWLVEKVKEFF-NH2)
EC50 [1, 3]: 0.372 nM | 4 h Cholesterol Efflux Emax [2]: 109%

CC[C@H](C)[C@H](NC(=O)[C@H](Cc1ccccc1)NC(=O)[C@H](CCC(=O)O)NC(=O)[C@H](CCCCN)NC(=O)[C@@H](NC(=O)[C@H](C)NC(=O)[C@H](CCC(=O)O)NC(=O)CNC(=O)[C@H](CCC(=O)O)NC(=O)[C@H](CC(C)C)NC(=O)[C@H](Cc1ccc(O)cc1)NC(=O)[C@H](CO)NC(=O)[C@H](CO)NC(=O)[C@@H](NC(=O)[C@H](CC(=O)O)NC(=O)[C@H](CO)NC(=O)[C@@H](NC(=O)[C@H](Cc1ccccc1)NC(=O)[C@@H](NC(=O)CNC(=O)[C@H](CCC(=O)O)NC(=O)C(C)(C)NC(=O)[C@@H](N)Cc1c[nH]cn1)[C@@H](C)O)[C@@H](C)O)C(C)C)C(C)C)C(=O)N[C@@H](CCC(N)=O)C(=O)N[C@@H](Cc1c[nH]c2ccccc12)C(=O)N[C@@H](CC(C)C)C(=O)N[C@@H](CC(C)C)C(=O)N[C@@H](CCC(=O)O)C(=O)N[C@@H](CCCCN)C(=O)NC(C)(C)C(=O)N[C@@H](CCCCN)C(=O)N[C@@H](CCC(=O)O)C(=O)N[C@@H](Cc1ccccc1)C(=O)N[C@@H](CC(C)C)C(N)=O [Compound 79, [Aib8,Glu23,Val25,Gln30,Leu33,Glu34,Lys35,Aib36,Lys37]-GLP-1-(7-37)-peptidyl-Glu-Phe-Leu amide] (H-H[Aib]EGTFTSDVSSYLEGEAVKEFIQWLLEK[Aib]KEFL-NH2)
EC50 [1, 3]: 0.061 nM | 4 h Cholesterol Efflux Emax [2]: 100%

CC[C@H](C)[C@H](NC(=O)[C@H](Cc1ccccc1)NC(=O)[C@H](CCC(=O)O)NC(=O)[C@H](CCCNC(=N)N)NC(=O)[C@@H](NC(=O)[C@H](C)NC(=O)[C@H](CCC(=O)O)NC(=O)[C@H](CCC(=O)O)NC(=O)[C@H](CCC(=O)O)NC(=O)[C@H](CCSC)NC(=O)[C@H](CCC(N)=O)NC(=O)[C@H](CCCCN)NC(=O)[C@H](CO)NC(=O)[C@H](CC(C)C)NC(=O)[C@H](CC(=O)O)NC(=O)[C@H](CO)NC(=O)[C@@H](NC(=O)[C@H](Cc1ccccc1)NC(=O)[C@@H](NC(=O)CNC(=O)[C@H](CCC(=O)O)NC(=O)C(C)(C)NC(=O)[C@@H](N)Cc1c[nH]cn1)[C@@H](C)O)[C@@H](C)O)C(C)C)C(=O)N[C@@H](CCC(=O)O)C(=O)N[C@@H](Cc1c[nH]c2ccccc12)C(=O)N[C@@H](CC(C)C)C(=O)N[C@@H](CCCCN)C(=O)N[C@@H](CC(N)=O)C(=O)N[C@@H](CCCCN)C(=O)NC(C)(C)C(=O)N[C@@H](CC(C)C)C(=O)N[C@@H](CCC(=O)O)C(=O)N[C@@H](Cc1ccccc1)C(=O)NCC(=O)N[C@@H](CCC(=O)O)C(=O)N[C@@H](CC(C)C)C(=O)N[C@@H](CC(C)C)C(N)=O [Compound 38, [Aib2,Glu21,Lys29,Aib30,Leu31,Glu32,Phe33,Glu35,Leu36,Leu371-Exendin-4-(1-37)-peptide amide] (H-H[Aib]EGTFTSDLSKQMEEEAVREFIEWLKNK[Aib]LEFGELL-NH2; N-terminus assumed)
EC50 [1, 3]: 0.012 nM | 4 h Cholesterol Efflux Emax [2]: 82%

CC[C@H](C)[C@H](NC(=O)[C@H](Cc1ccccc1)NC(=O)[C@H](CCC(=O)O)NC(=O)[C@H](CCCCN)NC(=O)[C@@H](NC(=O)[C@H](C)NC(=O)[C@H](CCC(=O)O)NC(=O)CNC(=O)[C@H](CCC(=O)O)NC(=O)[C@H](CC(C)C)NC(=O)[C@H](Cc1ccc(O)cc1)NC(=O)[C@H](CO)NC(=O)[C@H](CO)NC(=O)[C@@H](NC(=O)[C@H](CC(=O)O)NC(=O)[C@H](CO)NC(=O)[C@@H](NC(=O)[C@H](Cc1ccccc1)NC(=O)[C@@H](NC(=O)CNC(=O)[C@H](CCC(=O)O)NC(=O)C(C)(C)NC(=O)[C@@H](N)Cc1c[nH]cn1)[C@@H](C)O)[C@@H](C)O)C(C)C)C(C)C)C(=O)N[C@@H](CCC(N)=O)C(=O)N[C@@H](Cc1c[nH]c2ccccc12)C(=O)N[C@@H](CC(C)C)C(=O)N[C@H](C(=O)N[C@@H](CCC(=O)O)C(=O)N[C@@H](CCCCN)C(=O)NC(C)(C)C(=O)N[C@@H](CCCCN)C(=O)N[C@@H](CCC(=O)O)C(=O)N[C@@H](Cc1ccccc1)C(=O)N[C@@H](CC(C)C)C(N)=O)C(C)C [Compound 83, [Aib8,Glu23,Val25,Gln30,Glu34,Lys35,Aib36,Lys37]-GLP-1-(7-37)-peptidyl-Glu-Phe-Leu amide] (H-H[Aib]EGTFTSDVSSYLEGEAVKEFIQWLVEK[Aib]KEFL-NH2)
EC50 [1, 3]: 0.042 nM | 4 h Cholesterol Efflux Emax [2]: 97%

CC[C@H](C)[C@H](NC(=O)[C@H](Cc1ccccc1)NC(=O)[C@H](CCC(=O)O)NC(=O)[C@H](CCCCN)NC(=O)[C@@H](NC(=O)[C@H](C)NC(=O)[C@H](CCC(=O)O)NC(=O)CNC(=O)[C@H](CCC(=O)O)NC(=O)[C@H](CC(C)C)NC(=O)[C@H](Cc1ccc(O)cc1)NC(=O)[C@H](CO)NC(=O)[C@H](CO)NC(=O)[C@@H](NC(=O)[C@H](CC(=O)O)NC(=O)[C@H](CO)NC(=O)[C@@H](NC(=O)[C@H](Cc1ccccc1)NC(=O)[C@@H](NC(=O)CNC(=O)[C@H](CCC(=O)O)NC(=O)C(C)(C)NC(=O)[C@@H](N)Cc1c[nH]cn1)[C@@H](C)O)[C@@H](C)O)C(C)C)C(C)C)C(=O)N[C@@H](C)C(=O)N[C@@H](Cc1c[nH]c2ccccc12)C(=O)N[C@@H](CC(C)C)C(=O)N[C@H](C(=O)N[C@@H](CCC(=O)O)C(=O)N[C@@H](CCCCN)C(=O)N[C@H](C(=O)N[C@@H](CCCCN)C(=O)NCC(=O)N[C@@H](Cc1ccccc1)C(=O)N[C@@H](CC(C)C)C(N)=O)C(C)C)C(C)C [Compound 115, [Aib8,Glu23,Val25,Glu34,Lys35,Val36,Lys37]-GLP-1-(7-37)-peptidyl-Glv-Phe-Leu amide] (H-H[Aib]EGTFTSDVSSYLEGEAVKEFIAWLVEKVKGFL-NH2)
EC50 [1, 3]: 0.032 nM | 4 h Cholesterol Efflux Emax [2]: 94%

CC[C@H](C)[C@H](NC(=O)[C@H](Cc1ccccc1)NC(=O)[C@H](CCC(=O)O)NC(=O)[C@H](CCCNC(=N)N)NC(=O)[C@@H](NC(=O)[C@H](C)NC(=O)[C@H](CCC(=O)O)NC(=O)[C@H](CCC(=O)O)NC(=O)[C@H](CCC(=O)O)NC(=O)[C@H](CCSC)NC(=O)[C@H](CCC(N)=O)NC(=O)[C@H](CCCCN)NC(=O)[C@H](CO)NC(=O)[C@H](CC(C)C)NC(=O)[C@H](CC(=O)O)NC(=O)[C@H](CO)NC(=O)[C@@H](NC(=O)[C@H](Cc1ccccc1)NC(=O)[C@@H](NC(=O)CNC(=O)[C@H](CCC(=O)O)NC(=O)C(C)(C)NC(=O)[C@@H](N)Cc1c[nH]cn1)[C@@H](C)O)[C@@H](C)O)C(C)C)C(=O)N[C@@H](CCC(=O)O)C(=O)N[C@@H](Cc1c[nH]c2ccccc12)C(=O)N[C@@H](CC(C)C)C(=O)N[C@@H](CCCCN)C(=O)N[C@@H](CC(N)=O)C(=O)N[C@@H](CCCCN)C(=O)NC(C)(C)C(=O)N[C@@H](CC(C)C)C(=O)N[C@@H](CCC(=O)O)C(=O)N[C@@H](Cc1ccccc1)C(=O)N[C@@H](CC(C)C)C(=O)N[C@@H](CCC(=O)O)C(=O)N[C@@H](CC(C)C)C(=O)N1CCC[C@H]1C(N)=O [Compound 40, [Aib2,Glu21,Lys29,Aib30,Leu31,Glu32,Phe33,Leu34,Glu35,Leu361-Exendin-4-(1-37)-peptide amide] (H-H[Aib]EGTFTSDLSKQMEEEAVREFIEWLKNK[Aib]LEFLELP-NH2; N-terminus assumed)
EC50 ([1]; 0% HSA, read-out: GLP1R CRE luc 0% HSA EC50 Mean Value): 0.023 nM | EC50 [1, 3]: 0.01 nM | 4 h Cholesterol Efflux Emax [2]: 91%

CC[C@H](C)[C@H](NC(=O)[C@H](Cc1ccccc1)NC(=O)[C@H](CCC(=O)O)NC(=O)[C@H](CCC(N)=O)NC(=O)[C@@H](NC(=O)[C@H](C)NC(=O)[C@H](CCC(=O)O)NC(=O)CNC(=O)[C@H](CCC(=O)O)NC(=O)[C@H](CC(C)C)NC(=O)[C@H](Cc1ccc(O)cc1)NC(=O)[C@H](CO)NC(=O)[C@H](CO)NC(=O)[C@@H](NC(=O)[C@H](CC(=O)O)NC(=O)[C@H](CO)NC(=O)[C@@H](NC(=O)[C@H](Cc1ccccc1)NC(=O)[C@@H](NC(=O)CNC(=O)[C@H](CCC(=O)O)NC(=O)C(C)(C)NC(=O)[C@@H](N)Cc1c[nH]cn1)[C@@H](C)O)[C@@H](C)O)C(C)C)C(C)C)C(=O)N[C@@H](C)C(=O)N[C@@H](Cc1c[nH]c2ccccc12)C(=O)N[C@@H](CC(C)C)C(=O)N[C@H](C(=O)N[C@@H](CCC(=O)O)C(=O)N[C@@H](C)C(=O)N[C@H](C(=O)N[C@@H](C)C(=O)N[C@@H](CCC(=O)O)C(=O)N[C@@H](Cc1ccccc1)C(=O)N[C@@H](CC(C)C)C(N)=O)C(C)C)C(C)C [Compound 94] (H-H[Aib]EGTFTSDVSSYLEGEAVQEFIAWLVEAVAEFL-NH2)
EC50 [1, 3]: 0.273 nM | 4 h Cholesterol Efflux Emax [2]: 74%

— patent US20150344540A1, “NOVEL GLP-1 RECEPTOR AGONISTS WITH CHOLESTEROL EFFLUX ACTIVITY” (NOVO NORDISK A/S, priority 2012, published 2015)
